# Test results from patent publication US20100152284A1, “PREVENTION AND REVERSAL OF CHEMOTHERAPY-INDUCED PERIPHERAL NEUROPATHY” (NOVOGEN RESEARCH PTY LTD, priority 2006, published 2010).
# Several values for one entry are separate records, joined by “and”; a condition that tells them apart may be missing. Identical values can stand only once.
# Key:
# [1] = tested on: differentiated PC12 cells; assay: Neurite toxicity: percentage of differentiated PC12 cells with neurites after 24 h incubation; conditions: for inhibition of neurite outgrowth, dose responsiveness: increasing concentrations, 24 hrs, FIG. 1; for reduction in the percentage of cells with neurites: strong dose; for reduction in cells with neurites compared to no treatment control: Example 2, p<0.001
# Description: PC-12 cells were maintained in Dulbecco's Modified Eagle Media (DMEM; Gibco) with 10% calf serum (Turbo calf serum, Invitrogen), 5% horse serum (JRH Biosciences, Victoria, Australia) and 1% penicillin/streptomycin (Invitrogen) at 37° C., in a 5% CO2 atmosphere. Differentiation into neurons was achieved by seeding cells at a density of 15,000 cells/well in 24-well plates (Falcon Becton Dickinson), on 13 mm glass cover slips (Menzel Glaser, Germany) coated with laminin (Invitrogen) and poly-DL-ornithine (Sigma) in DMEM plus 1% horse serum and 50 ng/mL of nerve growth factor (NGF) (Sigma). The cells were incubated for 72 hours under differentiation conditions, before use in the neurite outgrowth assays below.
# Working concentrations were diluted in PC12 cell differentiation medium as above. Treatments consisted of a 24 hour incubation in differentiation media with various concentrations of either agent.
# Outgrowing projections were considered neurites if they were greater than a cell body width (10 μm), essentially as previously described. Images of all neurons in thirty randomly selected fields were digitally captured using an Olympus BX60 fluorescence microscope with a UPIanFI 40×/0.75 objective lens and a Zeiss Axiocam HRc digital camera and Zeiss Axiovision 3.1 software. Neurons in all fields were counted per condition and the number of cells with neurites expressed as a percentage of total cells present and error expressed as the standard error of the mean (sem). Each experiment was conducted in triplicate and the results pooled. Statistical significance of data was analysed using ANOVA followed by the Bonferroni post-hoc test.
# Neurite toxicity was determined as the percent of cells comprising neurite outgrowths as described in Example 1.
# PC12 cells = tested on: PC12 cells
# Description: A serial dilution was also conducted for phenoxodiol to determine the concentration which would not affect normal growth of the differentiated cells. […] Working concentrations were diluted in PC12 cell differentiation medium as above.
# [2] = tested on: differentiated PC12 cells; assay: Neurite length (longest neurite per neuron) in differentiated PC12 cells; type: cell-based
# Description: Further to the above described analysis of cells containing neurites, the longest neurite per neuron present in each frame was measured using Image J open source software (NIH, USA).
# [3] = tested on: differentiated PC12 cells; assay: βIII-tubulin immunocytochemistry of treated differentiated PC12 cells; type: cell-based; conditions: 24 hrs
# Description: Further, immunocytochemistry was used to visualise the neurite toxicity effects described above. To do so, following the treatment period, cells were washed with PBS, fixed with 4% paraformaldehyde and permeabilised with ice-cold methanol. Neurons were immunostained for the neuronal marker βIII-tubulin (Promega; Madison, Wisconson, USA) and a Cy3-conjugated anti-mouse antibody (Invitrogen) was used to visualise the staining.
# [4] = patients receiving therapy; cited from earlier work
# [5] = tested on: differentiated PC12 cells; assay: Recovery from cisplatin-induced neurite toxicity (24 h drug, 24 h wash-out, 24 h phenoxodiol); type: cell-based; conditions: after 48 hrs of recovery
# Description: To determine whether phenoxodiol could have an effect on recovery from cisplatin- or paclitaxel-induced neurite toxicity by exacerbation, reversal, retardation or facilitation of repair, recovery experiments were performed. When conducting the recovery experiments, the concentrations of phenoxodiol tested were decreased by 1 log to 10 nM 100 nM and 1 μM.
compound,measurement,setting,value
CC(=O)O[C@H]1C(=O)[C@@]2(C)[C@H]([C@H](OC(=O)c3ccccc3)[C@]3(O)C[C@H](OC(=O)[C@H](O)[C@@H](NC(=O)c4ccccc4)c4ccccc4)C(C)=C1C3(C)C)[C@]1(OC(C)=O)CO[C@@H]1C[C@@H]2O [paclitaxel],"inhibition of neurite outgrowth, dose responsiveness",[1],dose response in inhibition of neurite outgrowth
same,decrease in the percentage of cells possessing neurites,"[1]; paclitaxel 0.156 μg/mL (0.18 μM), moderate dose, 24 h, Example 1",33%
same,reduction in the percentage of cells with neurites,"[1]; paclitaxel 2.5 μg/mL (2.93 μM), 24 h, Example 1",73.6%
same,reduction in cells with neurites compared to no treatment control,[1]; paclitaxel moderate dose (0.156 μg/ml),58%
same,reduction in cells with neurites compared to no treatment control,[1]; paclitaxel strong dose (2.4 μg/ml/2.93 μM),72%
same,cytotoxicity at the chosen concentrations,PC12 cells,did not produce cytotoxicity
same,neurite length compared to the no treatment control,"[2]; paclitaxel alone, both concentrations used, p<0.001",reduced neurite length
"Oc1ccc(C2=Cc3ccc(O)cc3OC2)cc1 [phenoxodiol, 2H-1-benzopyran-7-0,1,3-[4-hydroxyphenyl]]",sensitivity of neurite toxicity to the protective effect relative to cytotoxic and anti-proliferative effects in cancer cell lines,[1]; PC12 neuronal cell model vs a variety of cancer cell lines,approximately 10 fold
same,"neurite toxicity in combination, compared to phenoxodiol 10 μM alone",[1]; phenoxodiol 10 μM + cisplatin 1 μg/ml (P<0.01) or 20 μg/ml (P<0.001),increased toxicity
same,"neurite toxicity in combination, compared to phenoxodiol 10 μM alone","[1]; phenoxodiol 10 μM + paclitaxel, both concentrations (P<0.001)",increased toxicity
same,effect on percent neurites,"[1]; phenoxodiol alone 10 μM, 24 h, P<0.001 vs no treatment control",significant neurite toxicity
same,cytotoxicity,"PC12 cells; 10 μM, data not shown",considerable cytotoxicity
same,effect on cell death or neurite outgrowth,"PC12 cells; doses up to 1 μM, data not shown",no effect on cell death or neurite outgrowth
same,maximal concentration tested that did not affect survival of PC12 cells,PC12 cells; serial dilution,1 μM and 3.2 μg/ml
same,average neurite length compared to no treatment control,"[2]; phenoxodiol 10 μM alone, p<0.001",significant reductions in average neurite length
same,average neurite length compared to no treatment control,"[2]; phenoxodiol 10 μM in combination with Cisplatin and Paclitaxel, p<0.001",significant reductions in average neurite length
same,cell and neurite toxicity in βIII-tubulin stained cells,[3]; phenoxodiol 10 μm,Significant cell and neurite toxicity
"N.N.[Cl][Pt][Cl] [cisplatin, Cis-diamine-dichloro-platinum]",patients experiencing mild neuropathy,[4],around 40%
same,patients experiencing severe neuropathy,[4],approximately 4%
same,reduction in percentage of cells with neurites,"[1]; cisplatin 1 μg/mL (3.33 μM), moderate dose, 24 h, Example 1",31.9%
same,reduction in the percentage of cells with neurites,"[1]; cisplatin 20 μg/mL (66.65 μM), 24 h, Example 1",65.8%
same,neurite toxicity (percent neurites),"[1]; cisplatin alone 1 μg/ml, Example 2, ANOVA, t-test P<0.02",non-significant (n.s.) trend for moderate toxicity
same,decrease in percent neurites compared to control,"[1]; cisplatin alone 20 μg/ml, Example 2, P<0.001",42%
same,"inhibition of neurite outgrowth, dose responsiveness",[1],dose response in inhibition of neurite outgrowth
same,neurite toxicity compared to the no treatment control,[5]; cisplatin 1 μg/ml,no neurite toxicity
same,neurite toxicity compared to the no treatment control,"[5]; cisplatin 20 μg/ml, p<0.001",greater than 50%
same,average neurite length of the remaining neurites,[2]; cisplatin alone,no significant effect on the average neurite length
same,percentage of cells bearing neurites compared to control (βIII-tubulin staining),[3]; cisplatin 20 μg/ml,decreased the percentage of cells bearing neurites
